Laboratory results published in US20210311050A1, “TARGETING PATHOGENIC B CELLS IN AUTOIMMUNITY” (Research Foundation for the STATE UNIVERSITY OF NEW YORK, priority 2018, published 2021).
“Also recorded” adds a separate entry of the source.

Columns and labels:
CD11c^+ CD19^+ B cells [1] = experiment: In vitro agonist treatment of T cell-depleted spleen cells from E. muris-infected mice; format: cell-based; conditions: 48 hours
Experimental: FIGS. 6A-6B. In vitro agonist treatment eliminated T-bet^+ B cells. CD11c and CD19 flow cytometry data using B cells isolated from (A) vehicle-treated splenocytoes and (B) A2aR agonist (CGS21680)-treated splenocytes. C57BL/6 mice were infected with E. muris; 30 days post-infection, T cell-depleted spleen cells were incubated in cell culture medium treated with vehicle, or CGS21680 (1 μM), for 48 hours. Approximately 50% of the CD11c^+ CD19^+ B cells were depleted by the agonist.
FIGS. 7A-7B. In vitro Regadenoson treatment eliminated T-bet^+ B cells. (A) vehicle treated splenocytes and (B) agonist (Regadenoson)-treated splenocytes. Mice were infected with E. muris; 44 days post-infection, T cell-depleted spleen cells were incubated in medium with or without Regadenson (10 μM), for 48 hours. Approximately 30% of the CD11c^+ CD19^+ B cells were depleted by Regadenoson in vitro.

[2] = test system: CD11c^+ CD19^+ B cells (also T-bet^+); experiment: Agonist treatment of E. muris-infected wild-type versus B cell-specific A2aR KO mice (flow cytometry of spleen cells); format: in vivo; conditions: 30 days post-infection, treated every other day for 7 days
Experimental: FIGS. 3A-3B. […] CD11c and CD19 flow cytometry data from (A) Wild type mice (B) mice that lacked A2aR only on B cells. The mice were infected with E. muris; 30 days post-infection wild-type or MB1-cre×A2aR^fl/fl (B cell-specific A2aR KO) mice were treated with CGS21680 every other day for 7 days, at which time spleen cells were analyzed by flow cytometry. CD11c^+ CD19^+ B cells (also T-bet^+) were eliminated in the wild-type mice (A), but not in the B cell-specific A2aR KO mice (B). The data shown are representative of several experiments.

[3] = test system: T-bet+ Age-related B cells (ABCs); experiment: Depletion of T-bet+ Age-related B cells (ABCs) in aged mice; format: in vivo; conditions: administered at day 0, 4 and 6; sacrificed day 7; flow cytometry
Experimental: FIG. 8A-8C. T-bet+ Age-related B cells (ABCs) were depleted in aged mice upon CGS21680 treatment. CD11c and CD19 flow cytometry data from (A) vehicle-treated and (B) A2aR agonist-(CGS21680) treated aged mice. CGS21680 was administered at day 0, 4 and 6. Mice were sacrificed on day 7 and ABCs were identified using flow cytometry. (C) Quantification of the data in (A) and (B).

CD11c^+ CD19^+ B cells [4] = experiment: Depletion of T-bet+ B cells in lupus-prone MRL/lpr mice (flow cytometry of spleen cells); format: in vivo, MRL/lpr (MRL/MpJ-Fas^lpr/J) mice; conditions: 12 to 13 week old MRL/lpr mice, treated every other day for 7 days
Experimental: FIGS. 5A-5B. Agonist treatment eliminated T-bet^+ B cells in lupus-prone MRL/lpr (MRL/MpJ-Fas^lpr/J) mice. CD11c and CD19 flow cytometry data from (A) vehicle-treated mice and (B) A2aR agonist (CGS21680)-treated mice. 12 to 13 week old MRL/lpr mice were treated with vehicle, or CGS21680, every other day for 7 days, at which time spleen cells were analyzed by flow cytometry.

[5] = test system: anti-nuclear antibodies (ANAs); experiment: Anti-nuclear antibodies in lupus-prone MRL/lpr mice; format: in vivo; conditions: once weekly from 9 weeks of age, sacrificed at 15 weeks of age
Excerpt: FIG. 9. […] CGS21680-treated mice had much lower amounts of anti-nuclear antibodies (ANAs). ANAs are a signature of disease in lupus mice.

CD11c^+ T-bet^+ B cells = experiment: Depletion of splenic CD11c+ T-bet+ B cells in E. muris-infected mice (flow cytometry); format: in vivo, C57BL/6 mice
[6] = test system: CD11c^+ CD19^+ or T-bet^+ CD19^+ B cells; experiment: Depletion of T-bet+ B cells in lupus-prone SLE1.2.3 mice (flow cytometry of spleen cells); format: in vivo, SLE1.2.3 (B6.NZMs^Sle1/Sle2/Sle3) mice; conditions: nine-month old SLE mice, treated every other day for 7 days, n=6
Experimental: FIGS. 4A-4D. Agonist treatment eliminated T-bet+ B cells in lupus-prone SLE1.2.3 (B6.NZMs^Sle1/Sle2/Sle3) mice. (A) CD11c and CD19 flow cytometry data from vehicle treated mice. (B) CD11c and CD19 flow cytometry data from A2aR agonist (CGS21680)-treated mice. (C) T-bet and CD19 flow cytometry data from vehicle-treated mice. (D) T-bet and CD19 flow cytometry data from agonist (CGS21680)-treated mice. Nine-month old SLE mice were treated with vehicle, or CGS21680, every other day for 7 days, at which time spleen cells were analyzed by flow cytometry. CD11c^+ CD19^+ ((A) and (B)) or T-bet^+ CD19^+ ((C) and (D)) B cells were analyzed. […] The data shown are representative of an experiment where n=6.

SMILES | CD11c^+ CD19^+ B cells depleted in vitro (CD11c^+ CD19^+ B cells [1]; 1 μM, 30 days post-infection) | CD11c^+ CD19^+ B cells (also T-bet^+) in spleen, B cell-specific A2aR KO mice ([2]; MB1-cre×A2aR^fl/fl mice) | CD11c^+ CD19^+ B cells (also T-bet^+) in spleen, wild-type mice ([2]; wild-type mice) | T-bet+ Age-related B cells (ABCs) in aged mice [3] | CD11c^+ CD19^+ B cells in spleen (CD11c^+ CD19^+ B cells [4]) | amounts of anti-nuclear antibodies (ANAs) [5] | CD11c^+ T-bet^+ B cells in spleen after cessation of treatment (CD11c^+ T-bet^+ B cells; 2.5 mg/kg daily for 7 days from day 30, spleen harvested 12 days following cessation (day 48), p<0.0001 vs vehicle) | CD11c^+ T-bet^+ B cells in spleen after agonist treatment (CD11c^+ T-bet^+ B cells; E. muris infection day 0, 2.5 mg/kg daily for 7 days from day 30, spleen harvested day 37, p<0.0001 vs vehicle, 2.5 mg/kg) | CD11c^+ CD19^+ or T-bet^+ CD19^+ B cells in spleen [6] | CD11c^+ CD19^+ B cells depleted in vitro (CD11c^+ CD19^+ B cells [1]; 10 μM, 44 days post-infection) | number of Tbet^+ B cells in splenocytes (CD11c^+ T-bet^+ B cells; 2.5 mg/kg every other day for 7 days from day 30 post-infection, analysed day 37, P=0.0049 vs vehicle)
CCNC(=O)[C@H]1O[C@@H](n2cnc3c(N)nc(NCCc4ccc(CCC(=O)O)cc4)nc32)[C@H](O)[C@@H]1O [CGS21680] | Approximately 50% | did not eliminate | eliminated | depleted | Most of the CD11c^+ CD19^+ B cells were eliminated | much lower | prolonged depletion; also recorded: Significant cell depletion | largely absent; also recorded: major reduction | largely eliminated | – | –
CNC(=O)c1cnn(-c2nc(N)c3ncn([C@@H]4O[C@H](CO)[C@@H](O)[C@H]4O)c3n2)c1 [Regadenoson] | – | – | – | – | – | – | – | – | – | Approximately 30% | reduced
